Results from patent EP2915814A2, “Crystalline salts of sitagliptin” (priority 2008, dated 2010).
Where a name gives a salt, the structure may show the parent alone. Marks after values point to notes of the source that are not given here.

How the values were obtained:
[1] = Stability studies (storage at 60 °C in closed bottles or at 40 °C / 75 % RH in an open bottle; related substances by HPLC); settings: for Related Substances 2 W 40°C/75 % RH open / Related Substances 2 W 60°C closed: 2 weeks, 20160 min; for Related Substances 4 w 40°C/75 % RH closed / Related Substances 4 w 40°C/75 % RH open / Related Substances 4 w 60°C Closed bottle: 4 weeks, 40320 min; for Related Substances 12 weeks 40°C/75 % RH closed bottle / Related Substances 12 weeks 40°C/75 % RH open bottle: 120960 min; for Initial Related Substances: before storage
[2] = Hygroscopicity studies (water content after storage at 43 %, 75 % and 93 % relative humidity); type: physicochemical; settings: for Initial water content: initial sample; for Hygroscopicity 2 weeks 43 % rh: 2 weeks at 43 % rh; for Hygroscopicity 2 weeks 43 % rh / Hygroscopicity 2 weeks 75 % rh / Hygroscopicity 2 weeks 93 % rh: % Equilibrium moisture content, ss = semi solid state of sample, β = solid first changed into liquid and solidified again; for Hygroscopicity 2 weeks 75 % rh: 2 weeks at 75 % rh; for Hygroscopicity 2 weeks 93 % rh: 2 weeks at 93 % rh; for change during the hygroscopicity studies: 43 %, 75 % and 93 % relative humidity, confirmed by DSC of samples kept at 93 % relative humidity for 2 weeks
Text: The salts of the present invention and the free base were studied under three different humidity conditions (43 % relative humidity, 75 % relative humidity, and 93 % relative humidity).

[3] = closed bottle, two weeks at 60 °C
[4] = closed bottle, four weeks at 60 °C
[5] = open bottle, twelve weeks at 40 °C and 75 % RH

| Related Substances 2 W 40°C/75 % RH open [1] [%] | Related Substances 2 W 60°C closed [1] [%] | Related Substances 4 w 40°C/75 % RH closed [1] [%] | Related Substances 4 w 40°C/75 % RH open [1] [%] | Related Substances 4 w 60°C Closed bottle ([1]; closed bottle) [%] | Related Substances 12 weeks 40°C/75 % RH closed bottle ([1]; closed bottle) [%] | Related Substances 12 weeks 40°C/75 % RH open bottle ([1]; open bottle) [%] | Initial Related Substances [1] [%] | Hygroscopicity (water content) ([2]; 2 weeks 43 % rh) [%] | Hygroscopicity (water content) ([2]; 2 weeks 75 % rh) [%] | Hygroscopicity (water content) ([2]; 2 weeks 93 % rh) | Initial water content ([2]; before humidity storage) [%] | Hygroscopicity 2 weeks 43 % rh [2] | Hygroscopicity 2 weeks 75 % rh [2] | Hygroscopicity 2 weeks 93 % rh [2] | Initial water content ([2]; before storage) [%] | stability (degradation, related substances by HPLC) [1, 3] | Compound | also measured |
| --- | --- | --- | --- | --- | --- | --- | --- | --- | --- | --- | --- | --- | --- | --- | --- | --- | --- | --- |
| 0.36 | 0.23 | 0.30 | 0.53 | 0.30 | 0.34 | 0.44 | 0.20 |  |  |  |  |  |  |  |  |  | N[C@@H](CC(=O)N1CCn2c(nnc2C(F)(F)F)C1)Cc1cc(F)c(F)cc1F [Q: HCl II] |  |
| 0.05 | 0.01 | 0.01 | 0.01 | 0.01 | 0.14 | 0.15 | 0.04 | 3.86 | 4.36 | 4.49% | 1.4 |  |  |  |  |  | N[C@@H](CC(=O)N1CCn2c(nnc2C(F)(F)F)C1)Cc1cc(F)c(F)cc1F [B: HCl I, Sitagliptin Hydrochloride Form I] | stability (degradation, related substances by HPLC) ([1]; closed bottle, four weeks at 60 °C, listed as HCl form I): stable; stability (degradation, related substances by HPLC) ([1]; closed bottle, two weeks at 60 °C, listed as HCl form I): stable; stability (degradation, related substances by HPLC) ([1]; open bottle, twelve weeks at 40 °C and 75 % RH, listed as HCl form I): stable |
| 0.24 | 1.81 | 0.49 | 0.61 | 4.06 | 1.09 | 0.99 | 0.05 |  |  |  |  | 2.24 ss % | β 4.81% | 24.85** % | 1.039 |  | N[C@@H](CC(=O)N1CCn2c(nnc2C(F)(F)F)C1)Cc1cc(F)c(F)cc1F [H: Glycolate] |  |
|  |  |  |  |  |  |  |  |  |  |  |  | 2.58% | 2.94% | 3.23% | 1.47 |  | N[C@@H](CC(=O)N1CCn2c(nnc2C(F)(F)F)C1)Cc1cc(F)c(F)cc1F [J: Mesylate II] |  |
| 0.10 | 0.08 | 0.02 | 0.06 | 0.02 | 0.03 | 0.08 | 0.08 | 1.12 | 1.0 | 2.81% | 0.69 |  |  |  |  |  | N[C@@H](CC(=O)N1CCn2c(nnc2C(F)(F)F)C1)Cc1cc(F)c(F)cc1F [E: Sulfate I, Sitagliptin Sulfate Form I] | stability (degradation, related substances by HPLC) ([1]; closed bottle, four weeks at 60 °C, listed as sulfate (solvated)): stable; stability (degradation, related substances by HPLC) ([1]; closed bottle, two weeks at 60 °C, listed as sulfate (solvated)): stable |
|  |  |  |  |  |  |  |  |  |  |  |  | 0.32% | 0.44% | 0.83% | 0.27 |  | N[C@@H](CC(=O)N1CCn2c(nnc2C(F)(F)F)C1)Cc1cc(F)c(F)cc1F [Q : HCl II] |  |
| 0.16 | 0.16 | 0.08 | 0.08 | 0.12 | 0.07 | 0.11 | 0.11 |  |  |  |  | 2.89% | 3.37% | 4.04% | 2.08 |  | N[C@@H](CC(=O)N1CCn2c(nnc2C(F)(F)F)C1)Cc1cc(F)c(F)cc1F [N: Mesylate II] |  |
|  |  |  |  |  |  |  |  |  |  |  |  |  |  |  |  | degradation was observed | N[C@@H](CC(=O)N1CCn2c(nnc2C(F)(F)F)C1)Cc1cc(F)c(F)cc1F [maleate (solvated), Sitagliptin Maleate Form I] |  |
|  |  |  |  |  |  |  |  |  |  |  |  |  |  |  |  | stable | N[C@@H](CC(=O)N1CCn2c(nnc2C(F)(F)F)C1)Cc1cc(F)c(F)cc1F [maleate (non solvated), Sitagliptin Maleate Form II] |  |
|  |  |  |  |  |  |  |  |  |  |  |  |  |  |  |  |  | N[C@@H](CC(=O)N1CCn2c(nnc2C(F)(F)F)C1)Cc1cc(F)c(F)cc1F [maleate, sitagliptin maleate] | stability (degradation, related substances by HPLC) [1, 4]: showed a degradation; change during the hygroscopicity studies [2]: did not show much change |
| 0.34 | 0.43 | 0.28 | 0.33 | 0.49 | 0.56 | 0.59 | 0.16 | 0.54 | 0.5 | 28.77 * % | 0.51 |  |  |  |  | degradation was observed | N[C@@H](CC(=O)N1CCn2c(nnc2C(F)(F)F)C1)Cc1cc(F)c(F)cc1F [C: Lactate, Sitagliptin Lactate] | stability (degradation, related substances by HPLC) [1, 4]: showed a degradation; stability (degradation, related substances by HPLC) [1, 5]: shows degradation |
| 0.10 | 0.12 | 0.08 | 0.09 | 0.06 | 0.09 | 0.12 | 0.08 |  |  |  |  |  |  |  |  |  | N[C@@H](CC(=O)N1CCn2c(nnc2C(F)(F)F)C1)Cc1cc(F)c(F)cc1F [M: Phosphate H2O] |  |
|  |  |  |  |  |  |  |  |  |  |  |  | 1.13% | 0.49% | 0.96% | 0.68 |  | N[C@@H](CC(=O)N1CCn2c(nnc2C(F)(F)F)C1)Cc1cc(F)c(F)cc1F [K: Mesylate I] |  |
| 0.21 | 0.50 | 0.31 | 0.16 | 0.38 | 0.57 | 0.37 | 0.39 | 0.41 | 0.48 | 0.82% | 0.46 |  |  |  |  | stable | N[C@@H](CC(=O)N1CCn2c(nnc2C(F)(F)F)C1)Cc1cc(F)c(F)cc1F [A: Phosphate, Sitagliptin Phosphate] | stability (degradation, related substances by HPLC) [1, 4]: stable; stability (degradation, related substances by HPLC) [1, 5]: stable; change during the hygroscopicity studies [2]: did not show much change |
| 0.27 | 0.37 | 0.46 | 0.39 | 0.46 | 0.52 | 0.39 | 0.36 | 0.19 | 0.22 | 0.3% | 0.19 |  |  |  |  |  | N[C@@H](CC(=O)N1CCn2c(nnc2C(F)(F)F)C1)Cc1cc(F)c(F)cc1F [Base, 7-[(3R)-3-amino-1-oxo-4-(2,4,5-trifluorophenyl)butyl)-5,6,7,8-tetrahydro-3-(trifluoromethyl)-1,2,4-triazolo[4,3-a]pyrazine, reference compound] | stability (degradation, related substances by HPLC) ([1]; closed bottle, four weeks at 60 °C, listed as free base): stable; stability (degradation, related substances by HPLC) ([1]; closed bottle, two weeks at 60 °C, listed as free base): stable; stability (degradation, related substances by HPLC) ([1]; open bottle, twelve weeks at 40 °C and 75 % RH, listed as free base): stable; change during the hygroscopicity studies ([2]; listed as free base): did not show much change |
|  |  |  |  |  |  |  |  |  |  |  |  |  |  |  |  | stable | N[C@@H](CC(=O)N1CCn2c(nnc2C(F)(F)F)C1)Cc1cc(F)c(F)cc1F [phosphate monohydrate, sitagliptin dihydrogenphosphate, reference compound] | change during the hygroscopicity studies [2]: did not show much change |
